According to paper PMC7413516, “Antidepressant-like activity and safety profile evaluation of 1H-imidazo[2,1-f]purine-2,4(3H,8H)-dione derivatives as 5-HT1A receptor partial agonists” (PLoS ONE, 2020):
Values joined by “and” are separate entries in the source; they are usually repeats but may differ in a detail not shown here. Equal values may be shown once. Read-outs that look alike come from different tables or passages of the source.

Experiment: Pharmacokinetic study in mice, plasma and brain structures, LC/MS/MS
Type: in vivo, Swiss albino mice
Conditions: 1.25 mg/kg i.p.; for Kp: ratio of AUC values
Experimental: Blood samples from the Swiss albino mice were collected at 0 (pre-dose), 5, 15, 30, 60, 120, 240 and 480 min after a compound administration. The blood samples and brain structures were collected under general anesthesia induced by i.p. injection of 50 mg/kg ketamine plus 8 mg/kg xylazine. The blood samples were taken into heparinized tubes, immediately centrifuged at 1000 × g for 10 min, and plasma was collected. The plasma samples and brain structures were immediately frozen at -30°C and -80°C, respectively.
The plasma and tissue sample pretreatment procedure involved acetonitrile precipitation. A 5 μL aliquot of the IS working solution (100 ng/mL) was added to 50 μL of the collected mouse plasma sample, which was then vortex-mixed for 10 seconds. Thereafter, 200 μL of acetonitrile was added, vortexed during 20 min, and then centrifuged (1000 × g, 10 min). The supernatant (100 μL) was then transferred to insert placed in an autosampler vial, and a 10 μL volume of this was injected onto the HPLC column. Tissue samples were thawed before use, and whole hippocampus, striatum and frontal cortex were weighted and placed in a glass mortar and pestle tissue grinder and homogenized with an appropriate amount of phosphate buffer (pH 7.4) in 1:5 ratio. Afterward, 50 μL of tissue homogenates were transferred to new Eppendorf tubes and spiked with 5 μL of the internal standard working solution. All samples were stored on ice during the preparation process. This was followed by procedures like those described above.
The LC/ESI-MS/MS experiments were performed on an Applied Biosystems/MDS Sciex (Concord, Ontario, Canada) API 2000 triple quadrupole mass spectrometer equipped with an electrospray (ESI) ionization interface. This instrument was coupled to an Agilent 1100 (Agilent Technologies, Waldbronn, Germany) LC system. Data acquisition and processing were accomplished using Sciex Analyst 1.4.2 data collection and integration software.
An XBridge C18 (2.1 x 30 mm, 3.5 μm) analytical column (Waters, Milford, Massachusetts, USA) was used for compound separation. The temperatures of the column thermostat and the autosampler were set at 25°C and 10°C, respectively. The mobile phase consisted of a mixture of acetonitrile with addition of 0.1% formic acid (solvent A) and water with addition of 0.1% formic acid (solvent B) and was set at a flow rate of 0.6 mL/min. Starting amount of solvent A is 10%, isocratic elution from 0 to 3 min, and then gradient up to 90% of solvent A, and maintained to 10 min, and then gradient down to 10% of solvent A, and maintained to 15 min.
The ion source parameters were as follows: ion spray voltage: 5500 V; nebulizer gas (gas 1): 20 psi; turbo gas (gas 2): 25 psi; temperature of the heated nebulizer: 400°C; curtain gas: 40 psi; collision gas: 6 psi. Mass spectra were acquired by SRM with precursor/predominant product ion transitions for each analyte. The mass spectral Q1→Q3 transitions monitored for AZ-853, AZ-861 and for IS (nebivolol), were m/z 453.9→235.1; 504.3→285.1 and 406.2→151.1, respectively. The peak widths of precursor and product ions were set to 0.7 full width half-height. Quantification was done via peak area ratio.
Pharmacokinetic parameters were calculated by a non-compartmental approach from the average concentration values, using Phoenix WinNonlin software (Certara, Princeton, NJ 08540 USA). First order elimination rate constant (λz) was calculated by linear regression of time versus log concentration. Next, the area under the mean serum and tissue concentration versus time curve (AUC0→t) was estimated using the log-linear trapezoidal rule (1), where Ci is the plasma concentration measured at t1.
AUC0→t=∑i=1n((Ci+Ci+1)/2)∙(ti+1−ti). (1)
Area under the first-moment curve (AUMC0→t) was estimated by calculation of the total area under the first-moment curve using the Eq (2), where Ci is the plasma concentration measured at t1. AUMC0→t=∑i=1n((ti∙Ci+ti+1∙Ci+1)/2)∙(ti+1−ti). […]

**Q.** Which t0.5 does the source give for `Cn1c(=O)c2c(nc3n(CCCCN4CCN(c5cccc(C(F)(F)F)c5)CC4)ccn23)n(C)c1=O` [AZ-861, 1,3-dimethyl-8-(4-(4-(3-(trifluoromethyl)phenyl)piperazin-1-yl)butyl)-1H-imidazo[2,1-f]purine-2,4(3H,8H)-dione] here?
**A.** ca. 1.5 h

**Q.** And the “t0.5, frontal cortex” value?
**A.** 91.6 min

**Q.** What about the “t0.5, hippocampus” value of the same molecule?
**A.** 110.4 min

**Q.** And the “t0.5, striatum” value?
**A.** 83 min

**Q.** What about the “t0.5, plasma” value (1.25 mg/kg) of the same molecule?
**A.** 97 min and 97.5 min

**Q.** What about the “Concentration, plasma (individual animals)” value (“Concentration, plasma” for short) (5 min, 1.25 mg/kg) of the same molecule?
**A.** 45.82 ng/mL

**Q.** And the “Concentration, frontal cortex (individual animals)” value (from here on “Concentration, frontal cortex”) (15 min, 1.25 mg/kg)?
**A.** 230.57 ng/mL and 280.45 ng/mL and 263.78 ng/mL and 270.14 ng/mL and 226.47 ng/mL

**Q.** And the “Concentration, hippocampus (individual animals)” value (“Concentration, hippocampus” below) (15 min, 1.25 mg/kg)?
**A.** 234.13 ng/mL and 378.52 ng/mL and 328.15 ng/mL and 322.19 ng/mL and 317.44 ng/mL

**Q.** What about the “Concentration, plasma” value (15 min, 1.25 mg/kg) of the same molecule?
**A.** 44.70 ng/mL and 36.90 ng/mL and 42.80 ng/mL and 28.74 ng/mL and 38.15 ng/mL

**Q.** What about the “Concentration, striatum (individual animals)” value (“Concentration, striatum” below) (15 min, 1.25 mg/kg) of the same molecule?
**A.** 389.35 ng/mL and 271.77 ng/mL and 374.54 ng/mL and 325.44 ng/mL and 267.13 ng/mL

**Q.** What about the “Concentration, frontal cortex” value (30 min, 1.25 mg/kg) of the same molecule?
**A.** 184.45 ng/mL and 218.78 ng/mL and 190.14 ng/mL and 183.24 ng/mL and 219.17 ng/mL

**Q.** What about the “Concentration, hippocampus” value (30 min, 1.25 mg/kg) of the same molecule?
**A.** 192.35 ng/mL and 319.65 ng/mL and 217.19 ng/mL and 301.16 ng/mL and 245.19 ng/mL

**Q.** What about the “Concentration, plasma” value (30 min, 1.25 mg/kg) of the same molecule?
**A.** 31.10 ng/mL and 30.60 ng/mL and 22.40 ng/mL and 15.17 ng/mL and 19.56 ng/mL and 30.17 ng/mL

**Q.** What about the “Concentration, striatum” value (30 min, 1.25 mg/kg) of the same molecule?
**A.** 310.53 ng/mL and 258.57 ng/mL and 322.23 ng/mL and 318.66 ng/mL and 277.19 ng/mL

**Q.** What about the “Concentration, frontal cortex” value (60 min, 1.25 mg/kg) of the same molecule?
**A.** 97.18 ng/mL and 109.15 ng/mL and 91.75 ng/mL and 83.56 ng/mL and 89.47 ng/mL

**Q.** What about the “Concentration, hippocampus” value (60 min, 1.25 mg/kg) of the same molecule?
**A.** 110.60 ng/mL and 98.83 ng/mL and 88.50 ng/mL and 94.16 ng/mL and 88.17 ng/mL

**Q.** What about the “Concentration, plasma” value (60 min, 1.25 mg/kg) of the same molecule?
**A.** 6.60 ng/mL and 4.60 ng/mL and 6.58 ng/mL and 5.72 ng/mL and 4.19 ng/mL

**Q.** What about the “Concentration, striatum” value (60 min, 1.25 mg/kg) of the same molecule?
**A.** 69.53 ng/mL and 62.19 ng/mL and 51.27 ng/mL and 55.66 ng/mL and 48.45 ng/mL

**Q.** And the “Concentration, frontal cortex” value (120 min, 1.25 mg/kg)?
**A.** 41.78 ng/mL and 43.56 ng/mL and 39.11 ng/mL and 40.15 ng/mL and 41.18 ng/mL

**Q.** And the “Concentration, hippocampus” value (120 min, 1.25 mg/kg)?
**A.** 51.18 ng/mL and 56.82 ng/mL and 60.95 ng/mL and 47.42 ng/mL and 49.13 ng/mL

**Q.** What about the “Concentration, plasma” value (120 min, 1.25 mg/kg) of the same molecule?
**A.** 2.36 ng/mL and 2.87 ng/mL and 3.33 ng/mL and 3.12 ng/mL and 1.97 ng/mL

**Q.** What about the “Concentration, striatum” value (120 min, 1.25 mg/kg) of the same molecule?
**A.** 30.75 ng/mL and 29.92 ng/mL and 21.66 ng/mL and 19.44 ng/mL and 23.17 ng/mL

**Q.** And the “Concentration, frontal cortex” value (240 min, 1.25 mg/kg)?
**A.** 18.75 ng/mL and 10.56 ng/mL and 16.25 ng/mL and 9.48 ng/mL

**Q.** What about the “Concentration, hippocampus” value (240 min, 1.25 mg/kg) of the same molecule?
**A.** 15.35 ng/mL and 24.14 ng/mL and 23.55 ng/mL and 16.56 ng/mL

**Q.** And the “Concentration, plasma” value (240 min, 1.25 mg/kg)?
**A.** 0.67 ng/mL and 0.70 ng/mL and 0.34 ng/mL and 0.41 ng/mL and 0.57 ng/mL and 0.66 ng/mL

**Q.** And the “Concentration, striatum” value (240 min, 1.25 mg/kg)?
**A.** 4.87 ng/mL and 5.95 ng/mL and 6.85 ng/mL and 4.94 ng/mL

**Q.** What about the Vd/F (plasma, 1.25 mg/kg) of the same molecule?
**A.** 83 L/kg and 83.4 L/kg

**Q.** What about the Kp (Swiss albino, mouse, frontal cortex, ip, read-out: Brain structure-to-plasma concentration ratio, frontal cortex (FC/P)) of the same molecule?
**A.** 10.5

**Q.** And the AUC(0-t) (Swiss albino, mouse, frontal cortex, ip, read-out: AUC0→t, frontal cortex (converted))?
**A.** 363 ng·h/mL

**Q.** What about the MRT (Swiss albino, mouse, frontal cortex, ip, read-out: MRT, frontal cortex (converted)) of the same molecule?
**A.** 1.54 h

**Q.** What about the concentration at 5 min (Swiss albino, mouse, frontal cortex, ip, 1.25 mg/kg, 5 min, read-out: Concentration, frontal cortex (Mean)) of the same molecule?
**A.** 355 ng/mL

**Q.** And the concentration at 5 min (Swiss albino, mouse, frontal cortex, ip, 1.25 mg/kg, 5 min, read-out: Concentration, frontal cortex (individual animals))?
**A.** 408 ng/mL

**Q.** And the concentration at 15 min (Swiss albino, mouse, frontal cortex, ip, 1.25 mg/kg, 15 min, read-out: Concentration, frontal cortex (Mean))?
**A.** 251 ng/mL

**Q.** And the concentration at 15 min (Swiss albino, mouse, frontal cortex, ip, 1.25 mg/kg, 15 min, read-out: Concentration, frontal cortex (individual animals))?
**A.** 233 ng/mL

**Q.** What about the concentration at 30 min (Swiss albino, mouse, frontal cortex, ip, 1.25 mg/kg, 30 min, read-out: Concentration, frontal cortex (Mean)) of the same molecule?
**A.** 201 ng/mL

**Q.** And the concentration at 30 min (Swiss albino, mouse, frontal cortex, ip, 1.25 mg/kg, 30 min, read-out: Concentration, frontal cortex (individual animals))?
**A.** 209 ng/mL

**Q.** And the concentration at 60 min (Swiss albino, mouse, frontal cortex, ip, 1.25 mg/kg, 60 min, read-out: Concentration, frontal cortex (Mean))?
**A.** 95.8 ng/mL

**Q.** And the concentration at 60 min (Swiss albino, mouse, frontal cortex, ip, 1.25 mg/kg, 60 min, read-out: Concentration, frontal cortex (individual animals))?
**A.** 104 ng/mL

**Q.** And the concentration at 120 min (Swiss albino, mouse, frontal cortex, ip, 1.25 mg/kg, 120 min, read-out: Concentration, frontal cortex (Mean))?
**A.** 41 ng/mL

**Q.** And the concentration at 120 min (Swiss albino, mouse, frontal cortex, ip, 1.25 mg/kg, 120 min, read-out: Concentration, frontal cortex (individual animals))?
**A.** 40.3 ng/mL

**Q.** And the concentration at 240 min (Swiss albino, mouse, frontal cortex, ip, 1.25 mg/kg, 240 min, read-out: Concentration, frontal cortex (Mean))?
**A.** 12.8 ng/mL

**Q.** What about the concentration at 240 min (Swiss albino, mouse, frontal cortex, ip, 1.25 mg/kg, 240 min, read-out: Concentration, frontal cortex (individual animals)) of the same molecule?
**A.** 9.95 ng/mL

**Q.** What about the concentration at 480 min (Swiss albino, mouse, frontal cortex, ip, 1.25 mg/kg, read-out: Concentration, frontal cortex (Mean)) of the same molecule?
**A.** 2.98 ng/mL

**Q.** What about the concentration at 480 min (Swiss albino, mouse, frontal cortex, ip, 1.25 mg/kg, read-out: Concentration, frontal cortex (individual animals)) of the same molecule?
**A.** 1.96 ng/mL

**Q.** What about the Cmax (Swiss albino, mouse, frontal cortex, ip, 1.25 mg/kg, read-out: Cmax, frontal cortex) of the same molecule?
**A.** 355 ng/g

**Q.** What about the Tmax (Swiss albino, mouse, frontal cortex, ip, 1.25 mg/kg, read-out: tmax, frontal cortex (converted)) of the same molecule?
**A.** 5 min

**Q.** What about the Kp (Swiss albino, mouse, hippocampus, ip, read-out: Brain structure-to-plasma concentration ratio, hippocampus (H/P)) of the same molecule?
**A.** 12.6

**Q.** And the AUC(0-t) (Swiss albino, mouse, hippocampus, ip, read-out: AUC0→t, hippocampus (converted))?
**A.** 436 ng·h/mL

**Q.** What about the MRT (Swiss albino, mouse, hippocampus, ip, read-out: MRT, hippocampus (converted)) of the same molecule?
**A.** 1.78 h

**Q.** And the concentration at 5 min (Swiss albino, mouse, hippocampus, ip, 1.25 mg/kg, 5 min, read-out: Concentration, hippocampus (Mean))?
**A.** 274 ng/mL
